Laboratory results: patent publication US20110186731A1, “LCMS TECHNOLOGY AND ITS USES” (priority 2008, published 2011)
Entries after “also recorded” stand apart in the source; their conditions may differ. Where two headings read alike, the source gives them in different places.

Key:
PBMC = experiment: P.69 Pertactin specific human proliferation assay (in vitro restimulation of PBMC with synthetic peptides); type: cell-based; conditions: PBMC from a panel of healthy adult donors, synthetic standards
Procedure: (§1) For P.69 Pertactin specific human proliferation assays, 10^5 PBMC were incubated in complete medium at 150 µl/well in the absence or presence of the relevant peptide(s), at 1 or 10 μM at 37° C. in a 5% CO2 atmosphere. For PorA specific human proliferation assays, 10^5 PBMC or 2×10^4 MB71.5 T cells were incubated in complete medium at 150 μl/well in the absence or presence of the relevant peptide(s), peptide pool or PorAs rP1.7-2.4, P1.5-2.10, P1.7.16, P1.19.15, or P1.22.14 at the indicated concentrations at 37° C. in a 5% CO2 atmosphere. At day 4, 100-μl volumes were removed for the cytokine determinations. Then 0.5 μCi (18.5 kBq) ^3H-thymidine (Amersham, USA) was added to the culture 18 hours before harvesting the cells. Determination of CPM and calculation of the results were performed as for the proliferation assay of immune splenocytes. Results are expressed as SI±SD from at least triplicate wells. The region 4 specific T cell line MB71.5 was generated by repetitive in vitro restimulation of MB71 PBMC with 0.5 μg/ml rP1.5-2.1 in complete medium.
We investigated the immunogenicity of the two Bordetella pertussis P.69 Pertactin epitope regions in humans by in vitro restimulation of PBMC from a panel of healthy adult donors with synthetic standards representing the epitopes.

HLA-A2 [1] = target: T1, HLA-A2 (Homo sapiens, UniProt P04439, D140Y/D185E/D98H/E176V/E277Q/G131W/G231S/I119V/I121R/I166T/I218V/L300P/L318F/N151K/N90K/P208A/P217A/Q86G/Q94H/R138H/R169H/T345S); type: cell-based; conditions: MV-infected WH cells, HLA-A2 ligands, standard LCMS
MB71.5 T cells = experiment: PorA specific human proliferation assay with MB71.5 T cells; type: cell-based; conditions: FIG. 17A; region 4 18-mer peptides
Procedure: as §1

[2] = system: Balb/c and C57black/6 mice; experiment: Murine immunization with PorA and splenocyte proliferation assay; type: in vivo, mouse; conditions: splenocytes from Balb/c mice immunized with P1.5-1, 2-2; data not shown
HLA-A2 [3] = target: T1, HLA-A2; type: cell-based; conditions: human MDDC, HLA-A2 ligandome; from intensity ratio of native and singly labelled epitope
[4] = approach A (subtractive analysis)

With ASTLWYAESNALSKRLG as the sequence, how does the “immune recognition observed in donors” value (PBMC) read?
The value was “at least 2 donors”.

For GLASFILTI [SEQ ID NO: 6], which “Abundance (copies/cell)” value (HLA-A2 [1]; approach B (isotope labelling)) is on record?
The value was 150 copies/cell.

Which results are given for KLWESPQEI [SEQ ID NO: 1]?
Abundance (copies/cell) (HLA-A2 [1]; [4]): >100,000 copies/cell; Abundance (copies/cell) (HLA-A2 [1]; approach A (subtractive analysis), listed as MV-C84-92): > 100,000 copies/cell

With KLWESPQEI [SEQ ID NO: 4] as the sequence, how does the “Abundance (copies/cell)” value (HLA-A2 [1]; approach B (isotope labelling)) read?
Its value is 85 copies/cell.

How did the “Abundance (copies/cell)” value (HLA-A2 [1]; [4]) turn out when LMIDRPYVL [SEQ ID NO: 3] was run?
The value was 150 copies/cell.

How did the “Proliferation of MB71.5 T cells with autologous PBMC pulsed with synthetic peptides” value (MB71.5 T cells) turn out when “PEFSGFSGSVQFVPAQNS [S011-24, synthetic 18-mer, P1.5-2.10 region 4 variant]” was run?
Its value is “proliferated; also recorded: recognizing”.

And the “Response of splenocytes to region 4 peptides” value [2]?
Its value is “responded”.

“QLPEATFMV (listed as Measles virus) [SEQ ID NO: 2]” was tested. Which “Abundance (copies/cell)” value (HLA-A2 [1]; [4]) did it give?
Its value is 1,500 copies/cell.

For “SGSVQFVPAQNSKSAYTP [S011-25, synthetic 18-mer, P1.5-2.10 region 4 variant]”, which “Proliferation of MB71.5 T cells with autologous PBMC pulsed with synthetic peptides” value (MB71.5 T cells) is on record?
The value was “proliferated; also recorded: recognizing”.

And the “Response of splenocytes to region 4 peptides” value [2]?
The value was “responded”.

For “VVSEVDIAKAD (listed as Homo sapiens) [SEQ ID NO: 52]”, which “degree of upregulation due to the influenza virus infection” value (HLA-A2 [3]) is on record?
Its value is 16.
